Results reported in patent publication US12589025B2, “Intraocular devices, systems, and methods” (Sight Sciences, Inc., priority 2021, dated 2026).

Design: species or system Yucatan pigs
Conditions: pig, in vivo
From the text: Poly(lactic-co-glycolic acid) (PLGA) implants comprising bimatoprost were implanted into the eyes of 3 month old Yucatan pigs (6 pigs total). Prior to delivering the implant to either the sclera (fully intrascleral; “intrascleral arm”) or partially in the limbus (one end residing in the limbus, one end residing in the sclera; “limbal arm”), the pigs were placed under general anesthesia, and a lid speculum was inserted. Intraocular pressure was checked, and corneal thickness was checked in 4 quadrants, and centrally, using ultrasonic corneal pachymetry. The lid speculum was then removed.
In each of the 6 pigs, the right eye received one implant, and the left eye received 2 implants. In order to accomplish this, betadine drops were placed onto the left eyes of each pig and an eyelid speculum is inserted. A surgical operating microscope was positioned to visualize the implantation. Each eye was infraducted with a traction suture. A small conjunctival peritomy was created, and the sclera was marked with gentian violet-tipped calipers 2 mm posterior to the limbus. 10-0 nylon marking sutures were then placed 3-4 mm posterior to the limbus. A 27 G needle on a TB syringe was used to preform a tunnel for implantation toward the anterior chamber (group 1) or across the sclera (group 2). The implant was then deployed into the preformed tunnel, and the traction suture was released. Polymyxin-trimethoprim and tobramycin-dexamethasone drops were then placed in each eye, and the speculum was removed. The procedure was then repeated with two implants in each pig's […] eye.
At month 1, the pigs were examined, and one pig from each group was euthanized and the eyes were removed and placed in formalin for pathology. Aqueous samples from each of the 6 pigs were collected and analyzed for the presence of bimatoprost and Bimatoprost Acid (a metabolite of bimatoprost). At weeks 3, 10, and 20, the remaining pigs in each group were examined for redness, inflammation, eye rubbing, miosis, and squinting, as above.
At month 3, the remaining pigs were examined and aqueous samples collected (as above), and one of the remaining pigs from each group was euthanized (as above) for pathology.
The histopathology of the eyes is evaluated, as is the concentration of bimatoprost, and metabolites thereof, in the anterior chambers. The concentrations of bimatoprost and the bimatoprost acid metabolite in the anterior chamber of each pig's eyes are shown in FIGS. 24A-24D, at the time points described above. FIG. 24A and FIG. 24B show the concentrations of bimatoprost and the bimatoprost acid metabolite, respectively, for the three pigs (A1, A2, and A6) implanted with the intrascleral implant. […]

Bimatoprost Acid concentration, limbal arm compared to intrascleral arm	presence of Bimatoprost Acid (metabolite of bimatoprost) in aqueous samples	presence of bimatoprost in the aqueous humor	Compound	bimatoprost aqueous levels, limbal arm compared to intrascleral arm
higher concentration in the limbal arm	detectable		O=C(O)CCC/C=C\C[C@@H]1[C@@H](/C=C/[C@@H](O)CCc2ccccc2)[C@H](O)C[C@@H]1O [Bimatoprost Acid]	
		detectable	CCNC(=O)CCC/C=C\C[C@@H]1[C@@H](/C=C/[C@@H](O)CCc2ccccc2)[C@H](O)C[C@@H]1O [bimatoprost]	both higher and more sustained aqueous levels in the limbal arm
